Results from publication PMC7868322, “Rational Design of A Novel Small-Molecule HIV-1 Inactivator Targeting Both gp120 and gp41 of HIV-1” (Frontiers in Pharmacology, 2021).
Read-outs that look alike come from different tables or passages of the source.

Key:
KNH1135 (A, R5) = assay: microbe, parasite or virus in culture; assay type: cell-based, HIV-1; details: inactivation of cell-free virions, clinical virus KNH1135 (A, R5); means ± SD
PBL288 (C, R5) = assay: Inactivation of cell-free HIV-1 clinical virus; assay type: cell-based; details: inactivation of cell-free virions, means ± SD
SM145/GS 016 (C, R5) = assay: Inactivation of cell-free HIV-1 clinical virus; assay type: cell-based; details: inactivation of cell-free virions, means ± SD
HIV-1 Bal = assay: Inactivation of cell-free HIV-1 virions (PEG-6000 precipitation, p24 ELISA); assay type: cell-based
HIV-1 Bal (R5) = assay: Inhibition of HIV-1 infection (p24 ELISA); assay type: cell-based
92/TH/009 (A/E, R5) = assay: Inactivation of cell-free HIV-1 clinical virus; assay type: cell-based; details: inactivation of cell-free virions, means ± SD
HIV-1 IIIB = assay: Inactivation of cell-free HIV-1 virions (PEG-6000 precipitation, p24 ELISA); assay type: cell-based; details: Human immunodeficiency virus 1, IIIB virus inactivation
HIV-1 IIIB (X4) = assay: Inhibition of HIV-1 infection (p24 ELISA); assay type: cell-based
HIV-1 HXB2 gp120 = target: T1, HIV-1 HXB2 gp120 (Human immunodeficiency virus type 1 group M subtype B, UniProt P04578); assay: Flow cytometry competition with gp120 CD4bs-targeting mAbs on CHO-WT cells; assay type: binding; details: 100 µM
T1 construct: CHO-WT cells expressing HIV-1 HXB2 gp120; host or cells: CHO-WT cells
Method: Flow cytometry was used to detect compounds that competed with gp120 CD4bs-targeting mAbs for binding to gp120. In brief, 100 µL of FD016 at a concentration of 100 µM or PBS was first incubated with CHO-WT cells expressing HIV-1 HXB2 gp120 for 30 min at room temperature, and then gp120 CD4bs-targeting mAbs (5 μg/mL, 100 µL) and FITC-labeled goat anti-human secondary antibody were added successively. After three washes, the cells were analyzed with flow cytometry. ELISA was carried out to detect the activity of compounds that inhibit the binding of soluble CD4 (sCD4) or gp120 CD4bs-targeting mAbs to gp120 as previously described ([Si et al., 2004]; [Curreli et al., 2014]). Briefly, for sCD4 and gp120 binding, 50 µL of HIV-1 IIIB gp120 at 0.5 μg/mL was captured on polystyrene plate coated with sheep anti-gp120 antibody D7324 (Aalto Bio Reagents). sCD4 (ImmunoDiagnostics, Inc.) at 200 ng/mL was then added in the presence of an equal volume of different concentrations of compounds or PBS and incubated at 37°C for 1 h. […] After adding 3,3′,5,5′-tetramethylbenzidine chromogen substrate and sulfuric acid, the absorbance at 450 nm (A450) was recorded using a Microplate Reader (Tecan, Männedorf, Switzerland).

Cytotoxicity (CCK-8) = assay type: cell-based; details: human
Method: Cell viability was detected following the instructions in the protocol provided in the cell counting kit-8 (CCK-8; Dojindo Molecular Technologies, Gaithersburg, MD, USA) as previously described ([Yang et al., 2018]). Briefly, MT-2 cells and CEMx174 517 5.25 M7 cells (3 × 10^4/well) were incubated with compounds at different concentrations at 37°C for 48 h. Then, the supernatant was discarded, and CCK8 diluted 10 times with fresh medium was added (200 μL/well). After 2–6 h of incubation at 37°C, the absorbance at 450 nm was measured using a microplate reader (Tecan, Männedorf, Switzerland).

[1] = target: T2, 6HB formation between N36 and C34-biotin (Human immunodeficiency virus type 1 group M subtype B, UniProt P04578); assay: ELISA inhibition of six-helix bundle formation; assay type: biochemical, HIV-1; details: IC50, inhibition of 6HB formation between N36 and C34-biotin, peptides 0.5 μM final
T2 construct: preincubated with N36 peptide (2 μM, 50 μL) at 37°C for 1 h; purchased NIH AIDS Reagent Program
Method: An inhibitor (compound or C-peptide control) at graded concentrations was preincubated with N36 peptide (2 μM, 50 μL) at 37°C for 1 h. […] Subsequently, 50 μL of the mixture were added to the wells of the NC-1-coated plate, followed by incubation for 1 h. Then, HRP-labeled streptavidin and the substrate were added sequentially. The optical density at 450 nm was measured using a microplate reader (Tecan, Männedorf, Switzerland).

[2] = Human immunodeficiency virus 1, MT2, laboratory-adapted strain IIIB, MT-2 cells, p24 ELISA, read-out: IC50, inhibition of HIV-1 IIIB infection
[3] = CEMx174 5.25 M7 cells, read-out: CC50, CEMx174 5.25 M7 cell
[4] = MT-2 cells, read-out: CC50, MT-2 cell
[5] = Human immunodeficiency virus 1, laboratory-adapted strain Bal, CEMx174 5.25 M7 cells, p24 ELISA, read-out: IC50, inhibition of HIV-1 Bal infection

Molecule: Maraviroc [reference compound]
- EC50 (KNH1135 (A, R5)): > 500 nM
- EC50 (PBL288 (C, R5)): > 500 nM
- EC50 (SM145/GS 016 (C, R5)): > 500 nM
- EC50 (HIV-1 Bal; cell-free virions, 1 h at 4°C, PEG-6000 precipitation, read-out: EC50, inactivation of HIV-1 Bal): > 500 nM
- IC50 (HIV-1 Bal (R5); laboratory-adapted strain Bal, CEMx174 5.25 M7 cells, p24 ELISA, read-out: IC50, inhibition of HIV-1 Bal infection): 1 nM
- EC50 (92/TH/009 (A/E, R5)): > 500 nM

Molecule: CC1(C)CC(NC(=O)C(=O)Nc2ccc(Cl)c(F)c2)CC(C)(C)N1 [FD016, N^1-(4-Chloro-3-Fluorophenyl)-N^2-(2,2,6,6-Tetramethylpiperidin-4-yl) Oxalamide]
- EC50 (HIV-1 IIIB; alone, read-out: EC50 of FD016, Alone): > 10000 nM
- EC50 (HIV-1 IIIB; in mixture with FD017, read-out: EC50 of FD016, In mixture): 2510 nM
- IC50 (HIV-1 IIIB (X4); [2]): 5930 nM
- IC50 (HIV-1 IIIB (X4); Human immunodeficiency virus 1, IIIB, combination experiment, alone, read-out: IC50 of FD016, Alone): 4400 nM
- IC50 (HIV-1 IIIB (X4); Human immunodeficiency virus 1, IIIB, in mixture with FD017, read-out: IC50 of FD016, In mixture): 1190 nM
- Inhibition of gp120 CD4bs mAbs (B12 and N6) binding to gp120-expressing CHO cells (HIV-1 HXB2 gp120): could inhibit the interaction of gp120 and CD4bs-targeting mAbs effectively
- CC50 at 48 h (Cytotoxicity (CCK-8); [3]): > 50000 nM
- CC50 at 48 h (Cytotoxicity (CCK-8); [4]): > 50000 nM
- EC50 (HIV-1 Bal; Human immunodeficiency virus 1, Bal virus inactivation, alone, read-out: EC50 of FD016, Alone): > 20000 nM
- EC50 (HIV-1 Bal; Human immunodeficiency virus 1, Bal virus inactivation, in mixture with FD017, read-out: EC50 of FD016, In mixture): 2630 nM
- IC50 (HIV-1 Bal (R5); Human immunodeficiency virus 1, Bal, combination experiment, alone, read-out: IC50 of FD016, Alone): 18800 nM
- IC50 (HIV-1 Bal (R5); Human immunodeficiency virus 1, Bal, in mixture with FD017, read-out: IC50 of FD016, In mixture): 1820 nM
- IC50 (HIV-1 Bal (R5); [5]): 17000 nM

Molecule: O=C(O)c1cc(-c2ccc(/C=C3\SC(=S)N(CCc4ccc(O)cc4)C3=O)o2)ccc1Cl [FD017, (Z)-2-Chloro-5-(5-((3-(4-Hydroxyphenethyl)-4-oxo-2-Thioxothiazolidin-5-ylidene)methyl)furan-2-yl)benzoic Acid]
- EC50 (HIV-1 IIIB; alone, read-out: EC50 of FD017, Alone): > 10000 nM
- EC50 (HIV-1 IIIB; in mixture with FD016, read-out: EC50 of FD017, In mixture): 1210 nM
- IC50 (HIV-1 IIIB (X4); [2]): 1440 nM
- IC50 (HIV-1 IIIB (X4); Human immunodeficiency virus 1, IIIB, combination experiment, alone, read-out: IC50 of FD017, Alone): 1800 nM
- IC50 (HIV-1 IIIB (X4); Human immunodeficiency virus 1, IIIB, in mixture with FD016, read-out: IC50 of FD017, In mixture): 590 nM
- CC50 at 48 h (Cytotoxicity (CCK-8); [3]): 39800 nM
- CC50 at 48 h (Cytotoxicity (CCK-8); [4]): 47900 nM
- IC50 [1]: 1360 nM
- EC50 (HIV-1 Bal; Human immunodeficiency virus 1, Bal virus inactivation, alone, read-out: EC50 of FD017, Alone): > 5000 nM
- EC50 (HIV-1 Bal; Human immunodeficiency virus 1, Bal virus inactivation, in mixture with FD016, read-out: EC50 of FD017, In mixture): 1380 nM
- IC50 (HIV-1 Bal (R5); Human immunodeficiency virus 1, Bal, combination experiment, alone, read-out: IC50 of FD017, Alone): 1480 nM
- IC50 (HIV-1 Bal (R5); Human immunodeficiency virus 1, Bal, in mixture with FD016, read-out: IC50 of FD017, In mixture): 910 nM
- IC50 (HIV-1 Bal (R5); [5]): 830 nM
